Tested on: NCI-H196 complex spheroid viability
Assay: Anticancer human tumor NCI-H196 cell line growth inhibition [LSD1];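 note: spheroids exposed to agents for 7 days before readout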;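 for viability, T/C: 100% = DMSO vehicle control viability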
Details: for IC50: curve of first compound; for viability, T/C: stronger effect = lower value
Summary of the method: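 Drug combinations with the LSD1 inhibitor iadademstat tested on tumor cells co-cultured as spheroids with endothelial cells and mesenchymal stem cells. Concentrations descended in half-log increments from clinical Cmax or 10 microM.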

[1] = second compound 0.1 µM, first compound 0.0316 µM
[2] = second compound 0.1 µM, first compound 0.1 µM
[3] = second compound 0.1 µM, first compound 0.316 µM
[4] = second compound 0.1 µM, first compound 1 µM
[5] = second compound 0.1 µM, first compound 3.16 µM
[6] = second compound 0.1 µM, first compound 10 µM
[7] = second compound 0.316 µM, first compound 0.0316 µM
[8] = second compound 0.316 µM, first compound 0.1 µM
[9] = second compound 0.316 µM, first compound 0.316 µM
[10] = second compound 0.316 µM, first compound 1 µM
[11] = second compound 0.316 µM, first compound 3.16 µM
[12] = second compound 0.316 µM, first compound 10 µM
[13] = second compound 1 µM, first compound 0.0316 µM
[14] = second compound 1 µM, first compound 0.1 µM
[15] = second compound 1 µM, first compound 0.316 µM
[16] = second compound 1 µM, first compound 1 µM
[17] = second compound 1 µM, first compound 3.16 µM
[18] = second compound 1 µM, first compound 10 µM
[19] = second compound 3.16 µM, first compound 0.0316 µM
[20] = second compound 3.16 µM, first compound 0.1 µM
[21] = second compound 3.16 µM, first compound 0.316 µM
[22] = second compound 3.16 µM, first compound 1 µM
[23] = second compound 3.16 µM, first compound 3.16 µM
[24] = second compound 3.16 µM, first compound 10 µM
[25] = second compound 10 µM, first compound 0.0316 µM
[26] = second compound 10 µM, first compound 0.1 µM
[27] = second compound 10 µM, first compound 0.316 µM
[28] = second compound 10 µM, first compound 1 µM
[29] = second compound 10 µM, first compound 3.16 µM
[30] = second compound 10 µM, first compound 10 µM

Row | Compound | IC50 (second compound 0.1 µM) [µM] | IC50 (second compound 0.316 µM) [µM] | IC50 (second compound 1 µM) [µM] | IC50 (second compound 3.16 µM) [µM] | IC50 (second compound 10 µM) [µM] | viability, T/C [1] [%] | viability, T/C [2] [%] | viability, T/C [3] [%] | viability, T/C [4] [%] | viability, T/C [7] [%] | viability, T/C [8] [%] | viability, T/C [9] [%] | viability, T/C [10] [%] | viability, T/C [13] [%] | viability, T/C [14] [%] | viability, T/C [15] [%] | viability, T/C [16] [%] | viability, T/C [19] [%] | viability, T/C [20] [%] | viability, T/C [21] [%] | also measured
1 | CC(C)c1c(-c2ccccc2)nc2c(C#N)c[nH]n2c1=O + NC1CCC(NC2CC2c2ccccc2)CC1 | > 10 | > 10 | > 10 | > 10 | > 10 | 104 | 105 | 114 | 94.2 | 101 | 101 | 107 | 98.2 | 97.4 | 93.3 | 96.4 | 94.1 | 97.7 | 104 | 98.5 | viability, T/C [5]: 90.7%; viability, T/C [6]: 95.6%; viability, T/C [11]: 90%; viability, T/C [12]: 84.9%; viability, T/C [17]: 91.7%; viability, T/C [18]: 90.7%; viability, T/C [22]: 93.4%; viability, T/C [23]: 94.3%; viability, T/C [24]: 88%; viability, T/C [25]: 98.7%; viability, T/C [26]: 97.1%; viability, T/C [27]: 99.1%; viability, T/C [28]: 102%; viability, T/C [29]: 83.4%; viability, T/C [30]: 89%
2 | CC1COCCN1c1cc(-c2ccnn2C)c2ccnc(-c3ccn[nH]3)c2n1 (stereo not given) + NC1CCC(NC2CC2c2ccccc2)CC1 | 0.296 | 0.366 | 0.31 | 0.771 | 0.266 | 80 | 58.1 | 54.1 | 44.2 | 75.2 | 59.8 | 51.7 | 47.1 | 74.2 | 57.7 | 51.8 | 47.6 | 69.9 | 60.1 | 53.9 | viability, T/C (second compound 0.1 µM, first compound 0.00316 µM): 84.7%; viability, T/C (second compound 0.1 µM, first compound 0.01 µM): 84.3%; viability, T/C (second compound 0.316 µM, first compound 0.00316 µM): 81%; viability, T/C (second compound 0.316 µM, first compound 0.01 µM): 86.4%; viability, T/C (second compound 1 µM, first compound 0.00316 µM): 73.6%; viability, T/C (second compound 1 µM, first compound 0.01 µM): 78.7%; viability, T/C (second compound 3.16 µM, first compound 0.00316 µM): 88%; viability, T/C (second compound 3.16 µM, first compound 0.01 µM): 82.6%; viability, T/C [22]: 48.5%; viability, T/C (second compound 10 µM, first compound 0.00316 µM): 86.7%; viability, T/C (second compound 10 µM, first compound 0.01 µM): 78.8%; viability, T/C [25]: 74.5%; viability, T/C [26]: 56.2%; viability, T/C [27]: 49%; viability, T/C [28]: 46.5%
3 | COc1ccc([C@@H](O)c2cc(-c3ncnc4cc(N5CCOCC5)ccc34)c(F)cc2Cl)nn1 + NC1CCC(NC2CC2c2ccccc2)CC1 | > 10 | > 10 | > 10 | > 10 | > 10 | 102 | 99.2 | 88.9 | 81.3 | 103 | 102 | 96.6 | 85.5 | 95.7 | 105 | 93.4 | 90.5 | 103 | 103 | 88.9 | viability, T/C [5]: 72.7%; viability, T/C [6]: 53.7%; viability, T/C [11]: 73.4%; viability, T/C [12]: 54.6%; viability, T/C [17]: 76%; viability, T/C [18]: 58%; viability, T/C [22]: 88.9%; viability, T/C [23]: 69.5%; viability, T/C [24]: 54%; viability, T/C [25]: 102%; viability, T/C [26]: 104%; viability, T/C [27]: 89.8%; viability, T/C [28]: 84.2%; viability, T/C [29]: 73.3%; viability, T/C [30]: 57%

Reference: PubChem BioAssay AID1918958 (Molecular Pharmacology Branch, DTP, NCI, 2023)
